# Assay results: patent US20020004679A1, “Topoisomerase inhibitors for prevention of restenosis” (Quanam Medical Corporation, priority 1998, published 2002)
# Test system: coronary arteries of pigs
# Experiment: Drug-loaded polymer stent implanted in pig coronary arteries for one month; morphometric analysis of late loss and percent stenosis
# Type: in vivo, pig (Domestic Farm Swine)
# Conditions: overall conclusion from the pig coronary artery stent studies
# Description: Boundaries of a selected coronary artery segment were detected automatically from optically magnified and video-digitized regions of interest. The catheter used for insertion of the stents was used as a scaling device to determine the dimensions of the artery at the site of implantation. The original vessel diameter at the time of implantation was determined.
# The catheter used for insertion of the stents was used as a scaling device to determine the dimensions of the artery at the site of implantation. The original vessel diameter at the time of implantation was determined.
structure (smiles),measurement,value
"CC[C@@]1(O)C(=O)OCc2c1cc1n(c2=O)Cc2cc3ccccc3nc2-1 [camptothecin, Camptothecin]",inhibition of undesirable cell growth associated with vessel injury during coronary angioplasty and stent insertion,effective to inhibit the undesirable cell growth
